The values below come from patent publication US20250205342A1, “IRAK DEGRADERS AND USES THEREOF” (Kymera Therapeutics, Inc., priority 2022, published 2025).

The target in test [1] is T1, IRAK4 (Homo sapiens, UniProt Q9NWZ3).
T1 sequence (Q9NWZ3 1-460): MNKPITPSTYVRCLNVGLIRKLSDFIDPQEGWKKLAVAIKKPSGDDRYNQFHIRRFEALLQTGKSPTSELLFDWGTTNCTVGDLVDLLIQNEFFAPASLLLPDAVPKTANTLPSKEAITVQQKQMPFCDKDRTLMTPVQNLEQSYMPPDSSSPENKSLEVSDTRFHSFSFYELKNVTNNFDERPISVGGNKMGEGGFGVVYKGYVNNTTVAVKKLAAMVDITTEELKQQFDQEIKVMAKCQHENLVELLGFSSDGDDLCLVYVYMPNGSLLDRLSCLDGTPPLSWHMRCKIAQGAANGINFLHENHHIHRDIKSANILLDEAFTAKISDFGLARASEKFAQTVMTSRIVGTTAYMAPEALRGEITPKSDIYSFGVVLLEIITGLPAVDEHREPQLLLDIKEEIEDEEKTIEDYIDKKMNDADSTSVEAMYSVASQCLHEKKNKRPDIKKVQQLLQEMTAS
The experiment in a line: IRAK4 degradation in OCI-LY10 (MSD, Meso Scale Discovery). The format is cell-based. The note with it: OCI-LY10 cells, 24 h. Further details: endogenous in cells; host or cells: OCI-LY10. A digest of the protocol: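 OCI-LY10 cells (300,000/well) were treated with an 8-point 1:3 series (top 1 to 10 μM) for 4 to 24 h at 37 °C. IRAK4 in RIPA lysates was quantified by MSD sandwich immunoassay with two anti-IRAK4 antibodies. DC50 was fitted with a three-parameter logistic equation.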

Test [2] concerns the target T1, IRAK4. Put plainly: hPBMC IRAK4 degradation flow assay (monocytes). Format: cell-based. Further details: endogenous in cells; host or cells: human PBMCs (monocytes, CD14 positive gate). Particulars: CD14 positive monocytes, 20 h, read-out: hPBMC monocyte DC50 at 20 h. The gist of the method:
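Thawed human PBMCs treated 20 h (or 4 h) at 37° C. with 10-point 5-fold compound dilutions, 0.1% DMSO, then fixed, methanol-permeabilized and stained for IRAK4 and lineage markers by flow, with monocytes gated CD14+. IRAK4 MFI normalized to DMSO and 10 µM control; DC50 and max degradation from 4-parameter logistic fit.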

For the molecule `CC(C)(O)c1cc2nn([C@H]3CC[C@H](CNCCCCCCc4ccc5c(-c6cccc(C(=O)Nc7ccc(=O)n(CC(=O)O)c7)c6)cncc5c4)CC3)cc2cc1NC(=O)c1cccc(C(F)(F)F)n1` [Compound I-52], the DC50 at IRAK4 [1] and at IRAK4 [2] was greater than 10 µM throughout.
Regarding `O=C(O)Cn1cc(NC(=O)[C@H]2CCCN(c3cncc(OCCOCCOCCNC[C@H]4CC[C@H](n5cc(NC(=O)c6cnn7ccc(N8C[C@H]9C[C@@H]8CO9)nc67)c(C(F)F)n5)CC4)c3)C2)ccc1=O` [Compound I-44], the DC50 on IRAK4 [1] and on IRAK4 [2] was greater than 10 µM each time.
For `CCOC(=O)Cn1cc(NC(=O)[C@H]2CCCN(c3cncc(CCCCNC[C@H]4CC[C@H](n5cc6cc(NC(=O)c7cccc(C(F)(F)F)n7)c(OC)cc6n5)CC4)c3)C2)ccc1=O` [Compound I-31], the DC50 at IRAK4 [1] and at IRAK4 [2] was greater than 10 µM each time.
In the case of `COc1cc2nn([C@H]3CC[C@H](CNCCc4cncc(N5CCC[C@H](C(=O)Nc6ccc(=O)n(CC(=O)O)c6)C5)c4)CC3)cc2cc1NC(=O)c1cccc(C(F)(F)F)n1` [Compound I-26], the DC50 at IRAK4 [1] and on IRAK4 [2] was greater than 10 µM throughout.
Take `CC(C)(O)c1cc2nn([C@H]3CC[C@H](CNCCCCCCCCCC4=CC(c5cccnc5)CC(C(=O)Nc5ccc(=O)n(CC(=O)O)c5)=C4)CC3)cc2cc1NC(=O)c1cccc(C(F)(F)F)n1` (stereo partly drawn) [Compound I-60]: the DC50 on IRAK4 [1] and at IRAK4 [2] was greater than 10 µM in each case.
With `COC(=O)Cn1cc(NC(=O)c2cccc(-c3cncc4cc(CCCCCCCCCNC[C@H]5CC[C@H](n6cc7cc(NC(=O)c8cccc(C(F)(F)F)n8)c(C(C)(C)O)cc7n6)CC5)ccc34)c2)ccc1=O` [Compound I-55], the DC50 on IRAK4 [1] and on IRAK4 [2] was greater than 10 µM throughout.
Consider `COC(=O)Cn1cc(NC(=O)c2cccc(-c3cncc4c(CCCCCCNC[C@H]5CC[C@H](n6cc7cc(NC(=O)c8cccc(C(F)(F)F)n8)c(C(C)(C)O)cc7n6)CC5)cccc34)c2)ccc1=O` [Compound I-56], for which the DC50 on IRAK4 [1] and at IRAK4 [2] was greater than 10 µM each time.
Regarding `O=C(O)Cn1cc(NC(=O)[C@H]2CCCN(c3cncc(CCCCNC[C@H]4CC[C@H](n5cc(NC(=O)c6cnn7ccc(N8C[C@H]9C[C@@H]8CO9)nc67)c(C(F)F)n5)CC4)c3)C2)ccc1=O` [Compound I-21], the DC50 on IRAK4 [1] is greater than 10 µM; at IRAK4 [2], 1 to 10 µM.
On to `CCOC(=O)Cn1cc(NC(=O)c2cccc(-c3cncc(CCCCCCNC[C@H]4CC[C@H](n5cc6cc(NC(=O)c7cccc(C(F)(F)F)n7)c(C(C)(C)O)cc6n5)CC4)c3)c2)ccc1=O` [Compound I-97], for which the DC50 on IRAK4 [1] is 1 to 10 µM; at IRAK4 [2], greater than 10 µM.
On the same counts, the results for `O=C(O)Cn1cc(NC(=O)[C@H]2CCCN(c3cncc(C#CCOC4CCN(C[C@H]5CC[C@H](n6cc(NC(=O)c7cnn8ccc(N9C[C@H]%10C[C@@H]9CO%10)nc78)c(C(F)F)n6)CC5)CC4)c3)C2)ccc1=O` [Compound I-11] are greater than 10 µM and greater than 10 µM.
The matching figures for `O=C(O)Cn1cc(NC(=O)c2cccc(-c3cncc(CCCNC[C@H]4CC[C@H](n5cc(NC(=O)c6cnn7ccc(N8C[C@H]9C[C@@H]8CO9)nc67)c(C(F)F)n5)CC4)c3)c2)ccc1=O` [Compound I-87]: greater than 10 µM and greater than 10 µM.
The matching figures for `CCOC(=O)Cn1cc(NC(=O)c2ccc(-c3ccc(CCCCCCCCCNC[C@H]4CC[C@H](n5cc(NC(=O)c6cnn7ccc(N8C[C@H]9C[C@@H]8CO9)nc67)c(C(F)F)n5)CC4)cc3)cc2OC)ccc1=O` [Compound I-67]: greater than 10 µM and greater than 10 µM.
As to `CCOC(=O)Cn1cc(NC(=O)[C@H]2CCCN(c3cncc(C4CCN(C[C@H]5CC[C@H](n6cc(NC(=O)c7cnn8ccc(N9C[C@H]%10C[C@@H]9CO%10)nc78)c(C(F)F)n6)CC5)CC4)c3)C2)ccc1=O` [Compound I-18], the DC50 at IRAK4 [1] is greater than 10 µM; at IRAK4 [2], 1 to 10 µM.
Turning to `CCOC(=O)Cn1cc(NC(=O)c2cc(CCCCCCCCCNC[C@H]3CC[C@H](n4cc5cc(NC(=O)c6cccc(C(F)(F)F)n6)c(C(C)(C)O)cc5n4)CC3)cc(-c3cccnc3)c2)ccc1=O` [Compound I-72], the DC50 on IRAK4 [1] and on IRAK4 [2] was 1 to 10 µM in each case.
As for `CCOC(=O)Cn1cc(NC(=O)[C@H]2CCCN(c3cncc(OCCOCCOCCOCCOCCNC[C@H]4CC[C@H](n5cc6cc(NC(=O)c7cccc(C(F)(F)F)c7)c(OC)cc6n5)CC4)c3)C2)ccc1=O` [Compound I-43], the DC50 at IRAK4 [1] is greater than 10 µM; on IRAK4 [2] it was 1 to 10 µM.
`CC(C)(O)c1cc2nn([C@H]3CC[C@H](CNCCCCCCc4cccc5c(-c6cccc(C(=O)Nc7ccc(=O)n(CC(=O)O)c7)c6)cncc45)CC3)cc2cc1NC(=O)c1cccc(C(F)(F)F)n1` [Compound I-51]: the DC50 at IRAK4 [1] and on IRAK4 [2] was greater than 10 µM throughout.
With `CCOC(=O)Cn1cc(NC(=O)C2CCCN(c3cncc(N4CCC(CN(C)C[C@H]5CC[C@H](n6cc7cc(NC(=O)c8cccc(C(F)(F)F)n8)c(OC)cc7n6)CC5)CC4)c3)C2)ccc1=O` (stereo partly drawn) [Compound I-20], the DC50 at IRAK4 [1] and on IRAK4 [2] was greater than 10 µM throughout.
Take `CC(C)(O)c1cc2nn([C@H]3CC[C@H](CNCCCn4ccc5c(C(=O)Nc6ccc(=O)n(CC(=O)O)c6)cccc54)CC3)cc2cc1NC(=O)c1cccc(C(F)(F)F)n1` [Compound I-78]: the DC50 on IRAK4 [1] and at IRAK4 [2] was greater than 10 µM throughout.
In the case of `COc1cc2nn([C@H]3CC[C@H](CNCCOCCOCCOc4cncc(N5CCC[C@H](C(=O)Nc6ccc(=O)n(CC(=O)O)c6)C5)c4)CC3)cc2cc1NC(=O)c1cccc(C(F)(F)F)n1` [Compound I-40], the DC50 on IRAK4 [1] and at IRAK4 [2] was greater than 10 µM each time.
As for `O=C(O)Cn1cc(NC(=O)[C@H]2CCCN(c3cncc(CCCCCCNC[C@H]4CC[C@H](n5cc(NC(=O)c6cnn7ccc(N8C[C@H]9C[C@@H]8CO9)nc67)c(C(F)F)n5)CC4)c3)C2)ccc1=O` [Compound I-27], the DC50 at IRAK4 [1] and at IRAK4 [2] was greater than 10 µM each time.
As to `CC(C)(O)c1cc2nn([C@H]3CC[C@H](CNCCCCCCCCCc4ccc5c(-c6cccc(C(=O)Nc7ccc(=O)n(CC(=O)O)c7)c6)cncc5c4)CC3)cc2cc1NC(=O)c1cccc(C(F)(F)F)n1` [Compound I-53], the DC50 at IRAK4 [1] and on IRAK4 [2] was greater than 10 µM in each case.
In the case of `COc1cc(-c2ccc(F)c(CCCCCCCCCNC[C@H]3CC[C@H](n4cc(NC(=O)c5cnn6ccc(N7C[C@H]8C[C@@H]7CO8)nc56)c(C(F)F)n4)CC3)c2)ccc1C(=O)Nc1ccc(=O)n(CC(=O)O)c1` [Compound I-65], the DC50 on IRAK4 [1] and at IRAK4 [2] was greater than 10 µM each time.
As to `CCOC(=O)Cn1cc(NC(=O)c2cccc3c2ccn3CCCCCCNC[C@H]2CC[C@H](n3cc4cc(NC(=O)c5cccc(C(F)(F)F)n5)c(C(C)(C)O)cc4n3)CC2)ccc1=O` [Compound I-71], the DC50 on IRAK4 [1] and at IRAK4 [2] was greater than 10 µM in each case.
`COC(=O)Cn1cc(NC(=O)c2cccc(-c3cncc(CCCCCCCCCNC[C@H]4CC[C@H](n5cc6cc(NC(=O)c7cccc(C(F)(F)F)n7)c(C(C)(C)O)cc6n5)CC4)c3)c2)ccc1=O` [Compound I-49]: the DC50 on IRAK4 [1] and at IRAK4 [2] was 0.1 to 1 µM each time.
Turning to `CCOC(=O)Cn1cc(NC(=O)c2cc(CCCNC[C@H]3CC[C@H](n4cc5cc(NC(=O)c6cccc(C(F)(F)F)n6)c(C(C)(C)O)cc5n4)CC3)cc(-c3cccnc3)c2)ccc1=O` [Compound I-82], the DC50 at IRAK4 [1] and on IRAK4 [2] was greater than 10 µM each time.
Turning to `O=C(O)Cn1cc(NC(=O)[C@H]2CCCN(c3cncc(C4CCN(C[C@H]5CC[C@H](n6cc(NC(=O)c7cnn8ccc(N9C[C@H]%10C[C@@H]9CO%10)nc78)c(C(F)F)n6)CC5)CC4)c3)C2)ccc1=O` [Compound I-12], the DC50 at IRAK4 [1] and on IRAK4 [2] was greater than 10 µM each time.
For the molecule `COc1cc2nn([C@H]3CC[C@H](CNCCNc4cncc(N5CCC[C@H](C(=O)Nc6ccc(=O)n(CC(=O)O)c6)C5)c4)CC3)cc2cc1NC(=O)c1cccc(C(F)(F)F)n1` [Compound I-7], the DC50 on IRAK4 [1] and at IRAK4 [2] was greater than 10 µM each time.
Consider `CCOC(=O)Cn1cc(NC(=O)c2ccc(-c3ccc(F)c(CCCCCCCCCNC[C@H]4CC[C@H](n5cc6cc(NC(=O)c7cccc(C(F)(F)F)n7)c(C(C)(C)O)cc6n5)CC4)c3)cc2OC)ccc1=O` [Compound I-64], for which the DC50 at IRAK4 [1] is 1 to 10 µM; at IRAK4 [2], greater than 10 µM.
On the same counts, the results for `CCOC(=O)Cn1cc(NC(=O)c2ccc(-c3ccc(F)c(CCCCCCCCCNC[C@H]4CC[C@H](n5cc(NC(=O)c6cnn7ccc(N8C[C@H]9C[C@@H]8CO9)nc67)c(C(F)F)n5)CC4)c3)cc2OC)ccc1=O` [Compound I-66] are 1 to 10 µM and greater than 10 µM.
The matching figures for `CCOC(=O)Cn1cc(NC(=O)c2cccc(-c3cncc(CCCNC[C@H]4CC[C@H](n5cc(NC(=O)c6cnn7ccc(N8C[C@H]9C[C@@H]8CO9)nc67)c(C(F)F)n5)CC4)c3)c2)ccc1=O` [Compound I-91]: greater than 10 µM and greater than 10 µM.

A word on the DC50: it is the concentration giving 50% degradation.
